Test results: patent US11013830B2, “5-hydroxytryptamine 1B receptor-stimulating agent for enhancing in vivo engraftment potential” (INSTITUT PASTEUR, priority 2015, dated 2021)

Tests used:
bone marrow cells = experiment: Engraftment of Tg:ActinGFP bone marrow cells in irradiated Rag-/-γc-/- mice, GFP+ cells by cytometry; format: in vivo
Source text: For bone marrow analysis, animals were sacrificed and bone marrow was flushed and filtered through 40 μm cell strainer. The bulk was then directly assessed using Gallios A94303 (Beckman Coulter) and analysed with Kaluza flow cytometry software.
In order to investigate the potential effect of fluoxetine and vortioxetine on the bone marrow engraftment potential, Rag^−/−γc^−/− immunodeficient mice were used. These mice were irradiated at 95 cGy and then injected intravenously with 2 million cells taken from Tg:ActinGFP mouse (Okabe et al., 1997), to track the fate of the grafted cells.
Rag^−/−γc^−/− mice were treated with fluoxetine per os at 18 mg/Kg for 6 weeks. […] The number of GFP+ cells were investigated after 5 weeks in the bone marrow (the treatment was never discontinued). 63.7%±6.5 of GFP+ cells were detected in the placebo mice and 80.7%±8.4 GFP+ cells in the fluoxetine treated mice (p=0.0023, n=7, FIG. 2b,c). There was thus a 25% increase in engraftment efficiency in the fluoxetine treated animals.
To investigate the potential effect of vortioxetine on the engraftment potential, the same approach was used. The Rag^−/−γc^−/− were treated for 12 days by intra peritoneal injections at 20 mg/Kg. Twelve days after the beginning of the treatment, the mice were irradiated at 95 cGy and intravenously grafted with 2 million freshly isolated bone marrow cells from Tg:ActinGFP. 5 weeks after grafting the mice were sacrificed and bone marrow was flushed and analysed (FIG. 2d). The number of GFP+ cells was investigated after 5 weeks in the bone marrow (the treatment was never discontinued). 65.8%±5.5 cells were found in the placebo mice while 80.2%±5.8 cells were found in the vortioxetine treated animals (p=0.0079, n=5, FIG. 2e). There was thus a 21% increase in engraftment potential of bone marrow cells after vortioxetine treatment.
To further characterise the timing of vortioxetine beneficial effects, the previous experiment was repeated without 12 days of pre-treatment (FIG. 2e,f). Rag^−/−γc^−/− were irradiated and grafted 2 hours post irradiation fresh bone marrow from Tg:ActinGFP mice. The same placebo was used displaying 65.8%±5.5 of GFP+ cells and 77.2%7.6 GFP+ cells in the vortioxetine treated animals at the time of the irradiation (p=0.04, n=5, FIG. 2e,g). A similar increase in engraftment potential (17%) was observed when animals were not pre-treated.

muscle stem cells [1] = experiment: Engraftment of grafted muscle stem cells (satellite cells) in cardiotoxin-injured tibialis anterior of Rag-/-γC-/- mice; format: in vivo; details: 28 days post injury
Experimental: For image analysis, ImageJ 1.46r software was using between 10 different photos randomly taken per section and 3 sections minimum per experimental group. The pictures were converted in a binary image and then the pixel values were collected. For fibre size, the sections were immunostained with rabbit anti Laminin (Sigma-Aldrich #L9393) diluted at 1/200, overnight at 4° C. Secondary Donkey ant Rabbit 488 (DL488 JacksonImmuno #711486152) were used at 1/200 45 minutes at room temperature. The fibre perimeter was done automatically by using Pixcavator® software.
In order to investigate the potential effect of fluoxetine and vortioxetine on the muscle engraftment potential, Rag^−/−γC^−/− immunodeficient mice (Sanchez et al., 2013) were used in this study. Mice were injured with cardiotoxin in the tibialis anterior (TA) and injected with 10,000 satellite cells (SC) 24 hours after the injury. The satellite cells (SC) were obtained from Tg:Pax7nGFP::PLAP mice (Deprimo et al., 1996; Rocheteau et al., 2012), allowing the prospective isolation of a pure population of SC by FACS (Pax7 being a specific marker of SC) and the follow up (PLAP placental alkaline phosphatase being an ubiquitous marker). The TA had been sampled 28 days post engraftment and the number of PLAP fibres was counted.
The Rag^−/−γC^−/− were treated for 6 weeks with fluoxetine per os at 18 mg/Kg at the time of the graft and the treatment continued during the regeneration process (FIG. 1a). When regeneration was completed 28 days post injury, the percentage of PLAP positive fibres was 20.5%±6.5 against 36%±6.2 in the treated animals (p=0.016; n=5, FIG. 1b-d).
To investigate the potential effect of vortioxetine on the engraftment potential, the same approach was used. The Rag^−/−γC^−/− were treated for 12 days by intra peritoneal injections at 20 mg/Kg. Twelve days after the beginning of the treatment, the mice were injured and grafted with Pax7nGFP:PLAP SC. The treatment was continuous during the entire regenerative process (FIG. 1e). 28 days post injury the TA were sampled and stained for Laminin and PLAP. 19%±7.7 fibres were PLAP+ after placebo treatment against 36.1%±5.7 in the vortioxetine treated animals (p=0.028, n=4, FIG. 1f-h).

muscle stem cells [2] = details: fluoxetine 18 mg/Kg for 6 weeks; after 21 days; n=8; placebo 25.7%±8.7
Experimental: Mice were anesthetised and injured with cardiotoxin 18 hours before grafting in the tibialis anterior. Before grafting the mice were anesthetised again and grafted with 10,000 cells in 40 nl in PBS. Mice were kept for 28 days until muscle regeneration was complete. […] Mice were sacrificed 5 weeks after the injection.
Tibialis anterior was carefully dissected and snap frozen in liquid-nitrogen-cooled isopentane for a few minutes and stored at −80° C. prior to cryosectioning (10 μm sections). Sections were kept at room temperature overnight before staining. Sections were then rehydrated in PBS for 10 minutes and fixed in 10% formalin for 3 minutes. The sections were then routinely stained with PLAP antibody manually.
Fluoxetine treatment was provided at 18 mg/Kg for 6 weeks to Rag^−/−γc^−/− mice. The tibialis anterior (TA) was injured and 18 h post injury 10,000 satellite cells (SC) coming from Tg:Pax7nGFP:PLAP:MyHC2E3FLacZ triple transgenic mice were grafted to the Rag^−/−γc^−/− mice pre-treated with fluoxetine.

SMILES: Cc1ccc(Sc2ccccc2N2CCNCC2)c(C)c1 [vortioxetine, 1-[2-(2,4-Dimethylphenylsulfanyl)phenyl]piperazine]
- increase in engraftment potential of bone marrow cells versus placebo (bone marrow cells; vortioxetine 20 mg/Kg, 12 days pre-treatment, 5 weeks after grafting): 21%
- GFP+ cells in the bone marrow (bone marrow cells; vortioxetine intra peritoneal 20 mg/Kg for 12 days before irradiation/graft, never discontinued, 5 weeks after grafting, n=5, placebo 65.8%±5.5): 80.2%±5.8
- GFP+ cells in the bone marrow (bone marrow cells; vortioxetine started at the time of the irradiation, without 12 days of pre-treatment, 5 weeks after grafting, n=5, placebo 65.8%±5.5): 77.2%
- increase in engraftment potential versus placebo (bone marrow cells; vortioxetine, animals not pre-treated): 17%
- percentage of PLAP+ fibres (muscle stem cells [1]; vortioxetine intra peritoneal 20 mg/Kg for 12 days before graft and continued, n=4, placebo 19%±7.7): 36.1%±5.7
- engraftment potential of the injected SC versus placebo (muscle stem cells [1]; vortioxetine intra peritoneal 20 mg/Kg, 12 days pre-treatment): more than doubled

SMILES: CNCCC(Oc1ccc(C(F)(F)F)cc1)c1ccccc1 (centres unmarked) [fluoxetine]
- GFP+ cells in the bone marrow (bone marrow cells; fluoxetine per os 18 mg/Kg for 6 weeks before irradiation/graft, never discontinued, 5 weeks after grafting, n=7, placebo 63.7%±6.5): 80.7%±8.4
- increase in engraftment efficiency versus placebo (bone marrow cells; fluoxetine per os 18 mg/Kg, 6 weeks pre-treatment, 5 weeks after grafting): 25%
- percentage of PLAP positive fibres (muscle stem cells [1]; fluoxetine per os 18 mg/Kg for 6 weeks before graft and continued, n=5, placebo 20.5%±6.5): 36%±6.2
- engraftment potential of the injected SC versus placebo (muscle stem cells [1]; fluoxetine per os 18 mg/Kg, 6 weeks pre-treatment): almost doubled
- percentage of fibers PLAP+ (coming from the graft) (muscle stem cells [2]): 39%±6.6
